Data taken from patent US8309546B2, “Morpholinopurine derivatives” (Daiichi Sankyo Company, Limited, priority 2008, dated 2012).

What was measured:
[1] = target: PI3Kα (Homo sapiens, UniProt P42336); assay: PI3K kinase activity inhibition assay; format: biochemical; settings: Kinase-Glo Plus ATP detection, read-out: IC50 against PI3K
In short: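 PI3Kα (50 nM solution) was reacted with 30 μM ATP and 45 μM PIP2 solutions, each in HEPES pH 7.4 with MgCl2 and DTT, for 2 h at room temperature. Remaining ATP was measured by Kinase-Glo Plus luminescence, and inhibition was derived from ATP consumed. IC50 was taken from curve fitting of the serial dilutions.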

[2] = tested on: human endometrial cancer cell strain AN3CA; assay: Cell growth inhibition test (MTT), AN3CA; format: cell-based; settings: AN3-CA, 72 h, 3 days culture, read-out: concentration exhibiting anti-cell effect (GI50)
In short: (§1)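 AN3CA, IGROV1 and HT29 seeded at 5000, 1000 and 5000 cells/well; compound added next day, 3 days at 37° C, 5% CO2. MTT 4 h, formazan in DMSO read at 540 nm. GI50 is the concentration giving 50% growth rate (T/C %, corrected for day-of-addition absorbance), interpolated between two bracketing concentrations.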

[3] = tested on: human ovary cancer cell strain IGROV1; assay: Cell growth inhibition test (MTT), IGROV1; format: cell-based; settings: IGROV-1, 72 h, IGROV1, 3 days culture, read-out: concentration exhibiting anti-cell effect (GI50)
In short: as §1

[4] = tested on: human colon cancer cell strain HT29; assay: Cell growth inhibition test (MTT), HT29; format: cell-based; settings: HT-29, 72 h, HT29, 3 days culture, read-out: concentration exhibiting anti-cell effect (GI50)
In short: as §1

[5] = tested on: Akt (threonine 308) phosphorylation in AN3CA tumor; assay: Akt phosphorylation inhibition assay in xenograft; format: in vivo, female nude mouse; settings: Mus musculus, AN3-CA, oral, 6 hr after dosing
In short: (§2)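 AN3CA human endometrial cancer cells grown as subcutaneous xenografts in female nude mice; compound dosed orally at a set concentration, tumors excised after a set time. Tumor lysates at equal protein were western blotted for p-Akt(T308) and p-S6(S235/236). Inhibition (%) = 100−100×(treated/untreated phospho signal).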

[6] = tested on: S6 (serine 235 and 236) phosphorylation in AN3CA tumor; assay: S6 phosphorylation inhibition assay in xenograft; format: in vivo, female nude mouse; settings: Mus musculus, AN3-CA, oral, 6 hr after dosing
In short: as §2

Chain of PI3Kα (P42336 whole entry, species assumed): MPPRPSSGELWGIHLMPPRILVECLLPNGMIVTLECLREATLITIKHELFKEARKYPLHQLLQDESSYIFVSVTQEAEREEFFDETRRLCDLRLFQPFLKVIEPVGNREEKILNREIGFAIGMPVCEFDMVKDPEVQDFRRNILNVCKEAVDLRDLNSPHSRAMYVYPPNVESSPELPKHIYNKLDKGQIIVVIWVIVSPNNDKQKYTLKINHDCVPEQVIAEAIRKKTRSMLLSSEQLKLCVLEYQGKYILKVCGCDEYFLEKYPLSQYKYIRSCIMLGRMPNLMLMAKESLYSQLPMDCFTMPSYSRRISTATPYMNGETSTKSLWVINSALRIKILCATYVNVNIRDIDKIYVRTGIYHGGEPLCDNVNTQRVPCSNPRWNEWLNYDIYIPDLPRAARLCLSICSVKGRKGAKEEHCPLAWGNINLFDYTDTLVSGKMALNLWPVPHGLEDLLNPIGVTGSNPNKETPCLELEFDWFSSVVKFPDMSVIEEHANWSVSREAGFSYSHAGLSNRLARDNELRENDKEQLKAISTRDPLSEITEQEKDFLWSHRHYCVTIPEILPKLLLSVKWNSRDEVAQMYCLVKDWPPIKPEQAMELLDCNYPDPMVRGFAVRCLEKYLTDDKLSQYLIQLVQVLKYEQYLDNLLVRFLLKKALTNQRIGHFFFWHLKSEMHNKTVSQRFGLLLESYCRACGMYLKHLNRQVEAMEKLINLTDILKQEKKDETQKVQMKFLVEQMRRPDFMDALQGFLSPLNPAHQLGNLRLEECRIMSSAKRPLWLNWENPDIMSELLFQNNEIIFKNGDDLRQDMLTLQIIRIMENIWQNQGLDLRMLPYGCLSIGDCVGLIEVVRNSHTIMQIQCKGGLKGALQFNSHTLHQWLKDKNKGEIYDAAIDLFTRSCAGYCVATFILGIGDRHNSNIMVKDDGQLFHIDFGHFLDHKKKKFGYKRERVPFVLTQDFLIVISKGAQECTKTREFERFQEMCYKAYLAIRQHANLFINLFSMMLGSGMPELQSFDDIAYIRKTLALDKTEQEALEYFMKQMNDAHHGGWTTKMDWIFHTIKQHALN
Chain of PI3Kα (P27986 whole entry partner, species assumed): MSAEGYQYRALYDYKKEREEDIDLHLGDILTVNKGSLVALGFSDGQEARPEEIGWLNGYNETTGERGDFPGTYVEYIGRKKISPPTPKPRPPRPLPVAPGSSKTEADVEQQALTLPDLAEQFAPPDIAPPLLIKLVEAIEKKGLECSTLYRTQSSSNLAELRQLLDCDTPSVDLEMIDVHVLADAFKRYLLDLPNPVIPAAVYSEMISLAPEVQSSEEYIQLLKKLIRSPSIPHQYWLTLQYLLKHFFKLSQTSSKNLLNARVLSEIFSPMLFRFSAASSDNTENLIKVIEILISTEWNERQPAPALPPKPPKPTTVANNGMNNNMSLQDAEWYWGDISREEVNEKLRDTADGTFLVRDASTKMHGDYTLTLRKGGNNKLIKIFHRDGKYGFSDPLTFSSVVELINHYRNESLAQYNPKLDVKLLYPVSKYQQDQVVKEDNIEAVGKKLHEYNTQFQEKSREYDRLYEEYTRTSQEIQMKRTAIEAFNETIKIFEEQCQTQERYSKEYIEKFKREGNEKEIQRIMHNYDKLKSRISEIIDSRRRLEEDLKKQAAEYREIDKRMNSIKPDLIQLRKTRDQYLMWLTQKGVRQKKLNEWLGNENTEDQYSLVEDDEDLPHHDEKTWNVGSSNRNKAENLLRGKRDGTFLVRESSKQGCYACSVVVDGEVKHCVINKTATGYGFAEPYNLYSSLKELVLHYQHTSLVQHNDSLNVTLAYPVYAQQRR

| Compound | IC50 [1] | GI50 [2] | GI50 [3] | GI50 [4] | inhibition at 10 mg/kg [5] | inhibition at 10 mg/kg [6] |
| --- | --- | --- | --- | --- | --- | --- |
| C[C@H](O)C(=O)N1CCN(c2nc3c(N4CCOCC4)nc(-c4cnc(N)nc4)nc3n2CC2CC2)C[C@H]1C [Example 95, (2S)-1-{(2R)-4-[2-(2-Aminopyrimidin-5-yl)-9-(cyclopropylmethyl)-6-morpholin-4-yl-9H-purin-8-yl]-2-methylpiperazin-1-yl}-1-oxopropan-2-ol] | 0.01 to 0.02 µM | ≤ 5 µM | ≤ 5 µM | ≤ 5 µM | > 60% | 70 to 90% |
| CC(=O)N1CCN(c2nc3c(N4CCOCC4)nc(-c4cnc(N)nc4)nc3n2CC2CC2)C[C@@H]1C [Example 96, 5-{8-[(3S)-4-Acetyl-3-methylpiperazin-1-yl]-9-(cyclopropylmethyl)-6-morpholin-4-yl-9H-purin-2-yl}pyrimidin-2-amine] | < 0.01 µM | ≤ 5 µM | ≤ 5 µM | ≤ 5 µM | > 60% | > 90% |
| CC(=O)N1CCN(c2nc3c(N4CCOCC4)nc(-c4cnc(N)nc4)nc3n2CC2CC2)C[C@H]1C [Example 97, 5-{8-[(3R)-4-Acetyl-3-methylpiperazin-1-yl]-9-(cyclopropylmethyl)-6-morpholin-4-yl-9H-purin-2-yl}pyrimidin-2-amine] | 0.01 to 0.02 µM | ≤ 5 µM | ≤ 5 µM | ≤ 5 µM | 30 to 60% | 70 to 90% |
| CC(=O)N1[C@H](C)CN(c2nc3c(N4CCOCC4)nc(-c4cnc(N)nc4)nc3n2CC2CC2)C[C@@H]1C [Example 98, 5-{8-[4-Acetyl-cis-3,5-dimethylpiperazin-1-yl]-9-(cyclopropylmethyl)-6-morpholin-4-yl-9H-purin-2-yl}pyrimidin-2-amine] | < 0.01 µM | ≤ 5 µM | ≤ 5 µM | ≤ 5 µM | 30 to 60% | > 90% |
| CC(C)Cn1c(N2CCN(C=O)[C@H](C)C2)nc2c(N3CCOCC3)nc(-c3cnc(N)nc3)nc21 [Example 100, (2R)-4-[2-(2-Aminopyrimidin-5-yl)-9-isobutyl-6-morpholin-4-yl-9H-purin-8-yl]-2-methylpiperazine-1-carboaldehyde] | < 0.01 µM | ≤ 5 µM | ≤ 5 µM | ≤ 5 µM | > 60% | > 90% |
| CC(=O)N1CCN(c2nc3c(N4CCOCC4)nc(-c4cnc(N)nc4)nc3n2CC(C)C)C[C@@H]1C [Example 101, 5-{8-[(3S)-4-Acetyl-3-methylpiperazin-1-yl]-9-isobutyl-6-morpholin-4-yl-9H-purin-2-yl}pyrimidin-2-amine] | 0.01 to 0.02 µM | ≤ 5 µM | ≤ 5 µM | ≤ 5 µM | > 60% | > 90% |
| CC(C)Cn1c(N2CCN(C=O)[C@@H](C)C2)nc2c(N3CCOCC3)nc(-c3cnc(N)nc3)nc21 [Example 102, (2S)-4-[2-(2-Aminopyrimidin-5-yl)-9-isobutyl-6-morpholin-4-yl-9H-purin-8-yl]-2-methylpiperazine-1-carboaldehyde] | < 0.01 µM | ≤ 5 µM | ≤ 5 µM | ≤ 5 µM | > 60% | > 90% |
| CC(C)Cn1c(N2CCN(C(=O)[C@H](C)O)[C@H](C)C2)nc2c(N3CCOCC3)nc(-c3cnc(N)nc3)nc21 [Example 103, (2S)-1-{(2R)-4-[2-(2-Aminopyrimidin-5-yl)-9-isobutyl-6-morpholin-4-yl-9H-purin-8-yl]-2-methylpiperazin-1-yl}-1-oxopropan-2-ol] | 0.01 to 0.02 µM | ≤ 5 µM | ≤ 5 µM | ≤ 5 µM | > 60% | > 90% |
| CC(C)Cn1c(N2CCN(C(=O)[C@H](C)O)[C@@H](C)C2)nc2c(N3CCOCC3)nc(-c3cnc(N)nc3)nc21 [Example 104, (2S)-1-{(2S)-4-[2-(2-Aminopyrimidin-5-yl)-9-isobutyl-6-morpholin-4-yl-9H-purin-8-yl]-2-methylpiperazin-1-yl}-1-oxopropan-2-ol] | 0.01 to 0.02 µM | ≤ 5 µM | ≤ 5 µM | ≤ 5 µM | > 60% | > 90% |
| CNc1ncc(-c2nc(N3CCOCC3)c3nc(N4CCN(S(C)(=O)=O)[C@@H](C)C4)n(CC(F)(F)F)c3n2)cn1 [Example 105, N-Methyl-5-{8-[(3S)-3-methyl-4-(methylsulfonyl)piperazin-1-yl]-6-morpholin-4-yl-9-(2,2,2-trifluoroethyl)-9H-purin-2-yl}pyrimidin-2-amine] | < 0.01 µM | ≤ 5 µM | ≤ 5 µM | ≤ 5 µM | 30 to 60% | > 90% |
| CNc1ncc(-c2nc(N3CCOCC3)c3nc(N4CCN(S(C)(=O)=O)[C@H](C)C4)n(CC(F)(F)F)c3n2)cn1 [Example 106, N-Methyl-5-{8-[(3R)-3-methyl-4-(methylsulfonyl)piperazin-1-yl]-6-morpholin-4-yl-9-(2,2,2-trifluoroethyl)-9H-purin-2-yl}pyrimidin-2-amine] | < 0.01 µM | ≤ 5 µM | ≤ 5 µM | ≤ 5 µM | > 60% | > 90% |
| CNc1ncc(-c2nc(N3CCOCC3)c3nc(N4CCN(C(C)=O)[C@@H](C)C4)n(CC(F)(F)F)c3n2)cn1 [Example 107, 5-{8-[(3S)-4-Acetyl-3-methylpiperazin-1-yl]-6-morpholin-4-yl-9-(2,2,2-trifluoroethyl)-9H-purin-2-yl}-N-methylpyrimidin-2-amine] | < 0.01 µM | ≤ 5 µM | ≤ 5 µM | ≤ 5 µM | > 60% | > 90% |
| CNc1ncc(-c2nc(N3CCOCC3)c3nc(N4CCN(C(C)=O)[C@H](C)C4)n(CC(F)(F)F)c3n2)cn1 [Example 108, 5-{8-[(3R)-4-Acetyl-3-methylpiperazin-1-yl]-6-morpholin-4-yl-9-(2,2,2-trifluoroethyl)-9H-purin-2-yl}-N-methylpyrimidin-2-amine] | 0.01 to 0.02 µM | ≤ 5 µM | ≤ 5 µM | ≤ 5 µM | > 60% | > 90% |
| C[C@H](O)C(=O)N1CCN(c2nc3c(N4CCOCC4)nc(-c4cnc(N)nc4)nc3n2CC(F)(F)F)C[C@@H]1C [Example 109, (2S)-1-{(2S)-4-[2-(2-Aminopyrimidin-5-yl)-6-morpholin-4-yl-9-(2,2,2-trifluoroethyl)-9H-purin-8-yl]-2-methylpiperazin-1-yl}-1-oxopropan-2-ol] | < 0.01 µM | ≤ 5 µM | ≤ 5 µM | ≤ 5 µM | > 60% | > 90% |
| C[C@H](O)C(=O)N1CCN(c2nc3c(N4CCOCC4)nc(-c4cnc(N)nc4)nc3n2CC(F)(F)F)C[C@H]1C [Example 110, (2S)-1-{(2R)-4-[2-(2-Aminopyrimidin-5-yl)-6-morpholin-4-yl-9-(2,2,2-trifluoroethyl)-9H-purin-8-yl]-2-methylpiperazin-1-yl}-1-oxopropan-2-ol] | < 0.01 µM | ≤ 5 µM | ≤ 5 µM | ≤ 5 µM | > 60% | > 90% |
| C[C@H]1CN(c2nc3c(N4CCOCC4)nc(-c4cnc(N)nc4)nc3n2CC(F)(F)F)CCN1C=O [Example 111, (2S)-4-[2-(2-Aminopyrimidin-5-yl)-6-morpholin-4-yl-9-(2,2,2-trifluoroethyl)-9H-purin-8-yl]-2-methylpiperazine-1-carboaldehyde] | < 0.01 µM | ≤ 5 µM | ≤ 5 µM | ≤ 5 µM | > 60% | > 90% |
| C[C@@H]1CN(c2nc3c(N4CCOCC4)nc(-c4cnc(N)nc4)nc3n2CC(F)(F)F)CCN1C=O [Example 112, (2R)-4-[2-(2-Aminopyrimidin-5-yl)-6-morpholin-4-yl-9-(2,2,2-trifluoroethyl)-9H-purin-8-yl]-2-methylpiperazine-1-carboaldehyde] | < 0.01 µM | ≤ 5 µM | ≤ 5 µM | ≤ 5 µM | > 60% | > 90% |
| C[C@@H](O)C(=O)N1CCN(c2nc3c(N4CCOCC4)nc(-c4cnc(N)nc4)nc3n2CC2CC2)C[C@@H]1C [Example 113, (2R)-1-{(2S)-4-[2-(2-Aminopyrimidin-5-yl)-9-(cyclopropylmethyl)-6-morpholin-4-yl-9H-purin-8-yl]-2-methylpiperazin-1-yl}-1-oxopropan-2-ol] | 0.01 to 0.02 µM | ≤ 5 µM | ≤ 5 µM | ≤ 5 µM | > 60% | > 90% |
